Test system: 463943-066-T-J2-PDC complex spheroid growth
Test: Anticancer human tumor 463943-066-T-J2-PDC patient-derived colon adenocarcinoma cell line growth inhibition [Asc]
Settings: for IC50: curve of first compound; for viability, T/C: stronger effect = lower value
Summary of the method: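 Complex spheroids combining tumor cells with HUVEC endothelial cells and human MSCs, at 37 degrees C, 5% CO2; agents tested alone or combined, half-log dilutions from at or near clinical Cmax, or 10 microM if Cmax unknown.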
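Further: compound exposure lasted 7 days.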
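Wherever viability, T/C is given: 100% = DMSO vehicle control wells.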

`Cn1ncnc1[C@H]1c2n[nH]c(=O)c3cc(F)cc(c23)N[C@@H]1c1ccc(F)cc1` + Cc1c(S(C)(=O)=O)c(-c2cc(F)cc(N3CCN(c4ccc(NS(=O)(=O)c5ccc(NC(CCN6CCC(C(=O)OCCCP(=O)(O)O)CC6)CSc6ccccc6)c(S(=O)(=O)C(F)(F)F)c5)cc4)CC3)c2)c(-c2ccc(Cl)cc2)n1C(C)C was tested, and the IC50 (second compound 0.0316 µM) was greater than 100 nM, the IC50 (second compound 0.1 µM) was greater than 100 nM and the IC50 (second compound 0.316 µM) was greater than 100 nM. For the same compound, the IC50 (second compound 1 µM) was greater than 100 nM, the IC50 (second compound 3.16 µM) was greater than 100 nM and the IC50 (second compound 10 µM) was less than 0.316 nM. It also gave a viability, T/C (second compound 0.0316 µM, first compound 0.000316 µM) of 100%, a viability, T/C (second compound 0.0316 µM, first compound 0.001 µM) of 91.8% and a viability, T/C (second compound 0.0316 µM, first compound 0.00316 µM) of 93.6%. The viability, T/C (second compound 0.0316 µM, first compound 0.01 µM) was 102%, the viability, T/C (second compound 0.0316 µM, first compound 0.0316 µM) was 92.2% and the viability, T/C (second compound 0.0316 µM, first compound 0.1 µM) was 83%. It also gave a viability, T/C (second compound 0.1 µM, first compound 0.000316 µM) of 93%, a viability, T/C (second compound 0.1 µM, first compound 0.001 µM) of 94% and a viability, T/C (second compound 0.1 µM, first compound 0.00316 µM) of 87.2%. For the same compound, the viability, T/C (second compound 0.1 µM, first compound 0.01 µM) was 91.6%, the viability, T/C (second compound 0.1 µM, first compound 0.0316 µM) was 92.3% and the viability, T/C (second compound 0.1 µM, first compound 0.1 µM) was 80.1%. The viability, T/C (second compound 0.316 µM, first compound 0.000316 µM) was 91.1%, the viability, T/C (second compound 0.316 µM, first compound 0.001 µM) was 82% and the viability, T/C (second compound 0.316 µM, first compound 0.00316 µM) was 84.5%. For the same compound, the viability, T/C (second compound 0.316 µM, first compound 0.01 µM) was 80.2%, the viability, T/C (second compound 0.316 µM, first compound 0.0316 µM) was 86.7% and the viability, T/C (second compound 0.316 µM, first compound 0.1 µM) was 83.1%. It also gave a viability, T/C (second compound 1 µM, first compound 0.000316 µM) of 84.9%, a viability, T/C (second compound 1 µM, first compound 0.001 µM) of 74.4% and a viability, T/C (second compound 1 µM, first compound 0.00316 µM) of 76.6%. For the same compound, the viability, T/C (second compound 1 µM, first compound 0.01 µM) was 79.8%, the viability, T/C (second compound 1 µM, first compound 0.0316 µM) was 85.2% and the viability, T/C (second compound 1 µM, first compound 0.1 µM) was 71.2%. For the same compound, the viability, T/C (second compound 3.16 µM, first compound 0.000316 µM) was 61.7%, the viability, T/C (second compound 3.16 µM, first compound 0.001 µM) was 58.1% and the viability, T/C (second compound 3.16 µM, first compound 0.00316 µM) was 61%. For the same compound, the viability, T/C (second compound 3.16 µM, first compound 0.01 µM) was 61%, the viability, T/C (second compound 3.16 µM, first compound 0.0316 µM) was 68.3% and the viability, T/C (second compound 3.16 µM, first compound 0.1 µM) was 60.8%. It also gave a viability, T/C (second compound 10 µM, first compound 0.000316 µM) of 44.8%, a viability, T/C (second compound 10 µM, first compound 0.001 µM) of 50.5% and a viability, T/C (second compound 10 µM, first compound 0.00316 µM) of 47.6%. It also gave a viability, T/C (second compound 10 µM, first compound 0.01 µM) of 46.8%, a viability, T/C (second compound 10 µM, first compound 0.0316 µM) of 56.2% and a viability, T/C (second compound 10 µM, first compound 0.1 µM) of 45.6%.
